Data reported in patent US20230146675A1, “PYRIMIDO[5,4-d]PYRIMIDINE DERIVATIVES AS ENT INHIBITORS FOR THE TREATMENT OF CANCERS, AND COMBINATION THEREOF WITH ADENOSINE RECEPTOR ANTAGONISTS” (ITEOS BELGIUM SA, priority 2020, published 2023).

Biological target: T1, human ENT1 (Homo sapiens, UniProt Q99808)
T1 sequence (Q99808 1-456): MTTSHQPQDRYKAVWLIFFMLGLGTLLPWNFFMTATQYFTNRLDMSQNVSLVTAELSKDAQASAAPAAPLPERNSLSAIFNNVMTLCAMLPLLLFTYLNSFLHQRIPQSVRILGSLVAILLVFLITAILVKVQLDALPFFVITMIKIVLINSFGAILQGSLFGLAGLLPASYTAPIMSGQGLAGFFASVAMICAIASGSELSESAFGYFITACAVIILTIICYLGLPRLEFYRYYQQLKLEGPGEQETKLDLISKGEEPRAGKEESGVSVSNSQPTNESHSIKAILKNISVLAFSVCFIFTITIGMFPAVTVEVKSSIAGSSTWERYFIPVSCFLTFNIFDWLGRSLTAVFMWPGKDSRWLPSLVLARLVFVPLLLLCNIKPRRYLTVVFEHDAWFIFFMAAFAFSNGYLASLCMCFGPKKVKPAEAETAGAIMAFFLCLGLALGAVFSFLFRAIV
Assay: ENT1 binding assay (competition with Sahenta-DY647 on JAR cells)
Set-up: JAR cells expressing ENT1 were bought from ATCC; host or cells: JAR cells
Settings: binned IC50
How it was run: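 JAR cells were incubated with test compounds and the fluorescent ligand Sahenta-DY647 in competition. Plates were washed twice by centrifugation (4 min, 400 rcf, 4 °C). Binding potency was derived from the final fluorescence.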

| Compound | IC50 |
| --- | --- |
| COCCN(Cc1ccc(C(=O)O)c(C)c1)c1nc(N2CCN(C)C(=O)C2)c2nc(N(CCOC)CCOC)nc(N3CCC(OC)CC3)c2n1 [Compound 338, 4-(((6-(bis(2-methoxyethyl)amino)-8-(4-methoxypiperidin-1-yl)-4-(4-methyl-3-oxopiperazin-1-yl)pyrimido[5,4-d]pyrimidin-2-yl)(2-methoxyethyl)amino)methyl)-2-methylbenzoic acid] | < 100 nM |
| COCCN(CCOC)c1nc(N2CCN(C)C(=O)C2)c2nc(N(CCOC)CCOC)nc(N(C)Cc3cccc(F)c3)c2n1 [Compound 233, 4-(2,6-bis(bis(2-methoxyethyl)amino)-8-((3-fluorobenzyl)(methyl)amino)pyrimido[5,4-d]pyrimidin-4-yl)-1-methylpiperazin-2-one] | < 100 nM |
| COCCN(Cc1ccc(C(=O)O)c(C(F)(F)F)c1)c1nc(N2CCN(C)C(=O)C2)c2nc(N(CCOC)CCOC)nc(N3CCC(OC)CC3)c2n1 [Compound 339, 4-(((6-(bis(2-methoxyethyl)amino)-8-(4-methoxypiperidin-1-yl)-4-(4-methyl-3-oxopiperazin-1-yl)pyrimido[5,4-d]pyrimidin-2-yl)(2-methoxyethyl)amino)methyl)-2-(trifluoromethyl)benzoic acid] | < 100 nM |
| COCCN(CCOC)c1nc(N2CCC(OC)CC2)c2nc(N(CCOC)CCOC)nc(NCc3cncs3)c2n1 [Compound 59, N2,N2,N6,N6-tetrakis(2-methoxyethyl)-8-(4-methoxypiperidin-1-yl)-N4-(thiazol-5-ylmethyl)pyrimido[5,4-d]pyrimidine-2,4,6-triamine] | 100 to 500 nM |
| COCCN(Cc1ccc(C(=O)O)cc1)c1nc(N2CCN(C)C(=O)C2)c2nc(N(CCOC)CCOC)nc(N3CCC(OC)CC3)c2n1 [Compound 333, 4-(((6-(bis(2-methoxyethyl)amino)-8-(4-methoxypiperidin-1-yl)-4-(4-methyl-3-oxopiperazin-1-yl)pyrimido[5,4-d]pyrimidin-2-yl)(2-methoxyethyl)amino)methyl)benzoic acid] | 500 to 1000 nM |
| COCCN(CCOC)c1nc(N2CC[C@H](OC)C2)c2nc(N(CCOC)CCOC)nc(N3CCC(OC)CC3)c2n1 [Compound 106, (S)-N2,N2,N6,N6-tetrakis(2-methoxyethyl)-4-(4-methoxypiperidin-1-yl)-8-(3-methoxypyrrolidin-1-yl)pyrimido[5,4-d]pyrimidine-2,6-diamine] | 100 to 500 nM |
| COCCN(CCOC)c1nc(N2CCC(OC)CC2)c2nc(N(CCO)CCO)nc(N3CC(=O)N(C)C(C)(C)C3)c2n1 [Compound 311, 4-(2-(bis(2-hydroxyethyl)amino)-6-(bis(2-methoxyethyl)amino)-8-(4-methoxypiperidin-1-yl)pyrimido[5,4-d]pyrimidin-4-yl)-1,6,6-trimethylpiperazin-2-one] | < 100 nM |
| COCCN(Cc1ccc(OC)c(OC)c1OC)c1nc(N2CCN(C)C(=O)C2)c2nc(N(CCO)CCO)nc(N3CCC(OC)CC3)c2n1 [Compound 305, 4-(6-(bis(2-hydroxyethyl)amino)-2-((2-methoxyethyl)(2,3,4-trimethoxybenzyl)amino)-8-(4-methoxypiperidin-1-yl)pyrimido[5,4-d]pyrimidin-4-yl)-1-methylpiperazin-2-one] | < 100 nM |
| COCCN(CCOC)c1nc(N2CCN(c3nc(C)ns3)CC2)c2nc(N(CCOC)CCOC)nc(N3CCC(OC)CC3)c2n1 [Compound 123, N2,N2,N6,N6-tetrakis(2-methoxyethyl)-4-(4-methoxypiperidin-1-yl)-8-(4-(3-methyl-1,2,4-thiadiazol-5-yl)piperazin-1-yl)pyrimido[5,4-d]pyrimidine-2,6-diamine] | 100 to 500 nM |
| COCCN(CCOC)c1nc(N2CCC(OC)CC2)c2nc(N(CCOC)CCOC)nc(NCc3ccc(OC)c(OC)c3)c2n1 [Compound 170, N4-(3,4-dimethoxybenzyl)-N2,N2,N6,N6-tetrakis(2-methoxyethyl)-8-(4-methoxypiperidin-1-yl)pyrimido[5,4-d]pyrimidine-2,4,6-triamine] | < 100 nM |
| CCN(CCN1CCCC1)c1nc(N2CCN(C)C(=O)C2)c2nc(N(CCOC)CCOC)nc(N3CCC(OC)CC3)c2n1 [Compound 267, 4-(6-(bis(2-methoxyethyl)amino)-2-(ethyl(2-(pyrrolidin-1-yl)ethyl)amino)-8-(4-methoxypiperidin-1-yl)pyrimido[5,4-d]pyrimidin-4-yl)-1-methylpiperazin-2-one] | 100 to 500 nM |
| COCCN(CCOC)c1nc(N2CCn3ncnc3C2)c2nc(N(CCOC)CCOC)nc(N3CCN(C)C(=O)C3)c2n1 [Compound 5, 4-(2,6-bis(bis(2-methoxyethyl)amino)-8-(5,6-dihydro-[1,2,4]triazolo[1,5-a]pyrazin-7(8H)-yl)pyrimido[5,4-d]pyrimidin-4-yl)-1-methylpiperazin-2-one] | < 100 nM |
| COCCN(CCOC)c1nc(N2CCC(OC)CC2)c2nc(N(CCOC)CCOC)nc(NCc3cccc(OC(F)(F)F)c3)c2n1 [Compound 143, N2,N2,N6,N6-tetrakis(2-methoxyethyl)-8-(4-methoxypiperidin-1-yl)-N4-(3-(trifluoromethoxy)benzyl)pyrimido[5,4-d]pyrimidine-2,4,6-triamine] | < 100 nM |
| COCCN(CCOC)c1nc(N2CCN(c3nccc(OC)n3)CC2)c2nc(N(CCOC)CCOC)nc(N3CCC(OC)CC3)c2n1 [Compound 125, N2,N2,N6,N6-tetrakis(2-methoxyethyl)-4-(4-methoxypiperidin-1-yl)-8-(4-(4-methoxypyrimidin-2-yl)piperazin-1-yl)pyrimido[5,4-d]pyrimidine-2,6-diamine] | 100 to 500 nM |
| CCOCCCNc1nc(N(CCOC)CCOC)nc2c(N3CCC(OC)CC3)nc(N(CCOC)CCOC)nc12 [Compound 52, N4-(3-ethoxypropyl)-N2,N2,N6,N6-tetrakis(2-methoxyethyl)-8-(4-methoxypiperidin-1-yl)pyrimido[5,4-d]pyrimidine-2,4,6-triamine] | 500 to 1000 nM |
| COCCN(CCOC)c1nc(N2CCC(OC)CC2)c2nc(N(CCOC)CCOC)nc(OCc3cccc(-c4noc(C)n4)c3)c2n1 [Compound 159, N2,N2,N6,N6-tetrakis(2-methoxyethyl)-4-(4-methoxypiperidin-1-yl)-8-((3-(5-methyl-1,2,4-oxadiazol-3-yl)benzyl)oxy)pyrimido[5,4-d]pyrimidine-2,6-diamine] | 100 to 500 nM |
| COCCN(CCOC)c1nc(N2CCC(OC)CC2)c2nc(N(CCOC)CCOC)nc(NCc3ccc(C(F)(F)F)nc3)c2n1 [Compound 53, N2,N2,N6,N6-tetrakis(2-methoxyethyl)-8-(4-methoxypiperidin-1-yl)-N4-((6-(trifluoromethyl)pyridin-3-yl)methyl)pyrimido[5,4-d]pyrimidine-2,4,6-triamine] | 500 to 1000 nM |
| COCCN(CCOC)c1nc(N2CCN(C)C(=O)C2)c2nc(N(CCOC)CCOC)nc(NCc3cccc(S(N)(=O)=O)c3)c2n1 [Compound 204, 3-(((2,6-bis(bis(2-methoxyethyl)amino)-8-(4-methyl-3-oxopiperazin-1-yl)pyrimido[5,4-d]pyrimidin-4-yl)amino)methyl)benzenesulfonamide] | 100 to 500 nM |
| COCCN(CCOC)c1nc(N2CCC(OC)CC2)c2nc(OCc3ccc(C)nc3)nc(N3CCC(OC)CC3)c2n1 [Compound 263, N,N-bis(2-methoxyethyl)-4,8-bis(4-methoxypiperidin-1-yl)-6-((6-methylpyridin-3-yl)methoxy)pyrimido[5,4-d]pyrimidin-2-amine] | 100 to 500 nM |
| COCCN(CCOC)c1nc(N2CCNC(=O)C2)c2nc(N(CCOC)CCOC)nc(N3CCC(OC)CC3)c2n1 [Compound 70, 4-(2,6-bis(bis(2-methoxyethyl)amino)-8-(4-methoxypiperidin-1-yl)pyrimido[5,4-d]pyrimidin-4-yl)piperazin-2-one] | 500 to 1000 nM |
| COCCCN(CCCOC)c1nc(N2CCC(OC)CC2)c2nc(N(CCCO)CCCO)nc(N3CCN(C)C(=O)C3)c2n1 [Compound 329, 4-(2-(bis(3-hydroxypropyl)amino)-6-(bis(3-methoxypropyl)amino)-8-(4-methoxypiperidin-1-yl)pyrimido[5,4-d]pyrimidin-4-yl)-1-methylpiperazin-2-one] | < 100 nM |
| COCCN(CCOC)c1nc(N2CCN(c3ncccc3N)CC2)c2nc(N(CCOC)CCOC)nc(N3CCC(OC)CC3)c2n1 [Compound 121, 4-(4-(3-aminopyridin-2-yl)piperazin-1-yl)-N2,N2,N6,N6-tetrakis(2-methoxyethyl)-8-(4-methoxypiperidin-1-yl)pyrimido[5,4-d]pyrimidine-2,6-diamine] | 500 to 1000 nM |
| COCCN(CCOC)c1nc(N2CCN(c3nccs3)CC2)c2nc(N(CCO)CCO)nc(N3CCCCC3)c2n1 [Compound 38, 2,2′-((6-(bis(2-methoxyethyl)amino)-4-(piperidin-1-yl)-8-(4-(thiazol-2-yl)piperazin-1-yl)pyrimido[5,4-d]pyrimidin-2-yl)azanediyl)diethanol] | 100 to 500 nM |
| COCCN(CCOC)c1nc(N2CCC(OC)CC2)c2nc(OCc3ccnc(C)c3)nc(N3CCC(OC)CC3)c2n1 [Compound 262, N,N-bis(2-methoxyethyl)-4,8-bis(4-methoxypiperidin-1-yl)-6-((2-methylpyridin-4-yl)methoxy)pyrimido[5,4-d]pyrimidin-2-amine] | 100 to 500 nM |
| COCCN(CCOC)c1nc(N2CCC(OC)CC2)c2nc(N(CCOC)CCOC)nc(NCCCCCC#N)c2n1 [Compound 182, 6-((2,6-bis(bis(2-methoxyethyl)amino)-8-(4-methoxypiperidin-1-yl)pyrimido[5,4-d]pyrimidin-4-yl)amino)hexanenitrile] | 500 to 1000 nM |
